# Test results as given in PubChem BioAssay (NCI).
#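 Cells were grown in 96-well plates and exposed to each compound for 48 hours at five concentrations; endpoints were interpolated linearly between bracketing concentrations, or set to the highest concentration if not reached. At the GI50, growth is halved. At the TGI there is no net growth.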
# How the values were obtained:
# Test in all cases: NCI tumour cell line growth inhibition, 48 h
# M14 melanoma = system: M14 melanoma
# RXF 393 renal = system: RXF 393 renal
# T-47D breast = system: T-47D breast
# NCI-H460 lung = system: NCI-H460 lung
# RPMI-8226 leukemia = system: RPMI-8226 leukemia
# ACHN renal = system: ACHN renal
# UACC-62 melanoma = system: UACC-62 melanoma
# A549 NSCLC = system: A549 NSCLC
# KM12 colon = system: KM12 colon
# SW-620 colon = system: SW-620 colon
# TK-10 renal = system: TK-10 renal
# U251 CNS = system: U251 CNS
# NCI-H522 lung = system: NCI-H522 lung
# DU-145 prostate = system: DU-145 prostate
# SK-MEL-5 melanoma = system: SK-MEL-5 melanoma
# HCT-116 colon = system: HCT-116 colon
# A498 renal = system: A498 renal
# SF-295 CNS = system: SF-295 CNS
# HL-60(TB) leukemia = system: HL-60(TB) leukemia
# MALME-3M melanoma = system: MALME-3M melanoma
# OVCAR-8 ovarian = system: OVCAR-8 ovarian
# HCC-2998 colon = system: HCC-2998 colon
# EKVX NSCLC = system: EKVX NSCLC
# IGROV1 ovarian = system: IGROV1 ovarian
# MCF7 breast = system: MCF7 breast
# CAKI-1 renal = system: CAKI-1 renal
# SK-MEL-28 melanoma = system: SK-MEL-28 melanoma
# MOLT-4 leukemia = system: MOLT-4 leukemia
# BT-549 breast = system: BT-549 breast
# HOP-62 NSCLC = system: HOP-62 NSCLC
# SF-539 CNS = system: SF-539 CNS
# SN12C renal = system: SN12C renal
# SK-MEL-2 melanoma = system: SK-MEL-2 melanoma
# NCI/ADR-RES ovarian = system: NCI/ADR-RES ovarian
# UO-31 renal = system: UO-31 renal
# SF-268 CNS = system: SF-268 CNS
# HT29 colon = system: HT29 colon
# HCT-15 colon = system: HCT-15 colon
# OVCAR-4 ovarian = system: OVCAR-4 ovarian
# K-562 leukemia = system: K-562 leukemia
# PC-3 prostate = system: PC-3 prostate
# COLO 205 colon = system: COLO 205 colon
# SNB-19 CNS = system: SNB-19 CNS
# OVCAR-5 ovarian = system: OVCAR-5 ovarian
# MDA-MB-231 breast = system: MDA-MB-231 breast
# 786-0 renal = system: 786-0 renal
# LOX IMVI melanoma = system: LOX IMVI melanoma
# SNB-75 CNS = system: SNB-75 CNS
# SK-OV-3 ovarian = system: SK-OV-3 ovarian
# HS 578T breast = system: HS 578T breast
# OVCAR-3 ovarian = system: OVCAR-3 ovarian
# MDA-MB-435 = system: MDA-MB-435
# CCRF-CEM leukemia = system: CCRF-CEM leukemia
# NCI-H23 lung = system: NCI-H23 lung
# HOP-92 NSCLC = system: HOP-92 NSCLC
# UACC-257 melanoma = system: UACC-257 melanoma
# NCI-H226 lung = system: NCI-H226 lung
smiles,measurement,setting,value
Fc1ccc(Oc2nccc(-c3c(-c4ccc(F)cc4)ncn3C3CCNCC3)n2)cc1,GI50,M14 melanoma,> 25 µM
same,TGI,M14 melanoma,> 25 µM
same,GI50,RXF 393 renal,> 25 µM
same,TGI,RXF 393 renal,> 25 µM
same,GI50,T-47D breast,> 18 µM
same,TGI,T-47D breast,> 25 µM
same,GI50,NCI-H460 lung,> 25 µM
same,TGI,NCI-H460 lung,> 25 µM
same,GI50,RPMI-8226 leukemia,> 25 µM
same,TGI,RPMI-8226 leukemia,> 25 µM
same,GI50,ACHN renal,> 25 µM
same,TGI,ACHN renal,> 25 µM
same,GI50,UACC-62 melanoma,> 20.8 µM
same,TGI,UACC-62 melanoma,> 25 µM
same,GI50,A549 NSCLC,> 25 µM
same,TGI,A549 NSCLC,> 25 µM
same,GI50,KM12 colon,> 25 µM
same,TGI,KM12 colon,> 25 µM
same,GI50,SW-620 colon,> 25 µM
same,TGI,SW-620 colon,> 25 µM
same,GI50,TK-10 renal,> 19.9 µM
same,TGI,TK-10 renal,> 25 µM
same,GI50,U251 CNS,> 25 µM
same,TGI,U251 CNS,> 25 µM
same,GI50,NCI-H522 lung,> 25 µM
same,TGI,NCI-H522 lung,> 25 µM
same,GI50,DU-145 prostate,> 25 µM
same,TGI,DU-145 prostate,> 25 µM
same,GI50,SK-MEL-5 melanoma,> 25 µM
same,TGI,SK-MEL-5 melanoma,> 25 µM
same,GI50,HCT-116 colon,> 25 µM
same,TGI,HCT-116 colon,> 25 µM
same,GI50,A498 renal,> 25 µM
same,TGI,A498 renal,> 25 µM
same,GI50,SF-295 CNS,> 25 µM
same,TGI,SF-295 CNS,> 25 µM
same,GI50,HL-60(TB) leukemia,> 25 µM
same,TGI,HL-60(TB) leukemia,> 25 µM
same,GI50,MALME-3M melanoma,> 25 µM
same,TGI,MALME-3M melanoma,> 25 µM
same,GI50,OVCAR-8 ovarian,> 25 µM
same,TGI,OVCAR-8 ovarian,> 25 µM
same,GI50,HCC-2998 colon,> 25 µM
same,TGI,HCC-2998 colon,> 25 µM
same,GI50,EKVX NSCLC,> 25 µM
same,TGI,EKVX NSCLC,> 25 µM
same,GI50,IGROV1 ovarian,19.2 µM
same,TGI,IGROV1 ovarian,> 25 µM
same,GI50,MCF7 breast,> 25 µM
same,TGI,MCF7 breast,> 25 µM
same,GI50,CAKI-1 renal,20.5 µM
same,TGI,CAKI-1 renal,> 25 µM
same,GI50,SK-MEL-28 melanoma,> 25 µM
same,TGI,SK-MEL-28 melanoma,> 25 µM
same,GI50,MOLT-4 leukemia,> 25 µM
same,TGI,MOLT-4 leukemia,> 25 µM
same,GI50,BT-549 breast,> 25 µM
same,TGI,BT-549 breast,> 25 µM
same,GI50,HOP-62 NSCLC,> 25 µM
same,TGI,HOP-62 NSCLC,> 25 µM
same,GI50,SF-539 CNS,> 25 µM
same,TGI,SF-539 CNS,> 25 µM
same,GI50,SN12C renal,> 19.6 µM
same,TGI,SN12C renal,> 25 µM
same,GI50,SK-MEL-2 melanoma,> 25 µM
same,TGI,SK-MEL-2 melanoma,> 25 µM
same,GI50,NCI/ADR-RES ovarian,> 25 µM
same,TGI,NCI/ADR-RES ovarian,> 25 µM
same,GI50,UO-31 renal,10.9 µM
same,TGI,UO-31 renal,> 25 µM
same,GI50,SF-268 CNS,> 25 µM
same,TGI,SF-268 CNS,> 25 µM
same,GI50,HT29 colon,14.7 µM
same,TGI,HT29 colon,> 25 µM
same,GI50,HCT-15 colon,> 25 µM
same,TGI,HCT-15 colon,> 25 µM
same,GI50,OVCAR-4 ovarian,> 25 µM
same,TGI,OVCAR-4 ovarian,> 25 µM
same,GI50,K-562 leukemia,> 25 µM
same,TGI,K-562 leukemia,> 25 µM
same,GI50,PC-3 prostate,> 25 µM
same,TGI,PC-3 prostate,> 25 µM
same,GI50,COLO 205 colon,> 25 µM
same,TGI,COLO 205 colon,> 25 µM
same,GI50,SNB-19 CNS,> 25 µM
same,TGI,SNB-19 CNS,> 25 µM
same,GI50,OVCAR-5 ovarian,> 25 µM
same,TGI,OVCAR-5 ovarian,> 25 µM
same,TGI,MDA-MB-231 breast,> 9.34 µM
same,GI50,786-0 renal,> 25 µM
same,TGI,786-0 renal,> 25 µM
same,GI50,LOX IMVI melanoma,> 25 µM
same,TGI,LOX IMVI melanoma,> 25 µM
same,GI50,SNB-75 CNS,> 25 µM
same,TGI,SNB-75 CNS,> 25 µM
same,GI50,SK-OV-3 ovarian,> 23.9 µM
same,TGI,SK-OV-3 ovarian,> 25 µM
same,GI50,HS 578T breast,> 24 µM
same,TGI,HS 578T breast,> 25 µM
same,GI50,OVCAR-3 ovarian,> 25 µM
same,TGI,OVCAR-3 ovarian,> 25 µM
same,GI50,MDA-MB-435,> 25 µM
same,TGI,MDA-MB-435,> 25 µM
O=C1CCCCCCCC/C=C/CCC(c2ccco2)O1 (stereo unspecified),GI50,M14 melanoma,67.7 µM
same,TGI,M14 melanoma,> 100 µM
same,GI50,CCRF-CEM leukemia,27 µM
same,TGI,CCRF-CEM leukemia,> 100 µM
same,GI50,RXF 393 renal,> 100 µM
same,TGI,RXF 393 renal,> 100 µM
same,GI50,T-47D breast,21 µM
same,TGI,T-47D breast,> 100 µM
same,GI50,NCI-H460 lung,> 100 µM
same,TGI,NCI-H460 lung,> 100 µM
same,GI50,RPMI-8226 leukemia,13.6 µM
same,TGI,RPMI-8226 leukemia,37.6 µM
same,GI50,ACHN renal,> 100 µM
same,TGI,ACHN renal,> 100 µM
same,GI50,UACC-62 melanoma,26.2 µM
same,TGI,UACC-62 melanoma,> 100 µM
same,GI50,A549 NSCLC,> 100 µM
same,TGI,A549 NSCLC,> 100 µM
same,GI50,KM12 colon,20.7 µM
same,TGI,KM12 colon,> 100 µM
same,GI50,SW-620 colon,58.3 µM
same,TGI,SW-620 colon,> 100 µM
same,GI50,TK-10 renal,23.5 µM
same,TGI,TK-10 renal,> 100 µM
same,GI50,U251 CNS,31.4 µM
same,TGI,U251 CNS,> 100 µM
same,GI50,NCI-H522 lung,37.7 µM
same,TGI,NCI-H522 lung,> 100 µM
same,GI50,DU-145 prostate,57.2 µM
same,TGI,DU-145 prostate,> 100 µM
same,GI50,NCI-H23 lung,> 100 µM
same,TGI,NCI-H23 lung,> 100 µM
same,GI50,SK-MEL-5 melanoma,44 µM
same,TGI,SK-MEL-5 melanoma,> 100 µM
same,GI50,HCT-116 colon,31.2 µM
same,TGI,HCT-116 colon,> 100 µM
same,GI50,SF-295 CNS,18.6 µM
same,TGI,SF-295 CNS,> 100 µM
same,GI50,HL-60(TB) leukemia,14.5 µM
same,TGI,HL-60(TB) leukemia,38.7 µM
same,GI50,MALME-3M melanoma,6.7 µM
same,TGI,MALME-3M melanoma,62.6 µM
same,GI50,OVCAR-8 ovarian,88.1 µM
same,TGI,OVCAR-8 ovarian,> 100 µM
same,GI50,HCC-2998 colon,> 100 µM
same,TGI,HCC-2998 colon,> 100 µM
same,GI50,EKVX NSCLC,> 100 µM
same,TGI,EKVX NSCLC,> 100 µM
same,GI50,IGROV1 ovarian,51.2 µM
same,TGI,IGROV1 ovarian,> 100 µM
same,GI50,MCF7 breast,15.8 µM
same,TGI,MCF7 breast,> 100 µM
same,GI50,CAKI-1 renal,> 100 µM
same,TGI,CAKI-1 renal,> 100 µM
same,GI50,SK-MEL-28 melanoma,73.3 µM
same,TGI,SK-MEL-28 melanoma,> 100 µM
same,GI50,HOP-92 NSCLC,50.5 µM
same,TGI,HOP-92 NSCLC,> 100 µM
same,GI50,UACC-257 melanoma,> 100 µM
same,TGI,UACC-257 melanoma,> 100 µM
same,GI50,MOLT-4 leukemia,24.1 µM
same,TGI,MOLT-4 leukemia,89.6 µM
same,GI50,BT-549 breast,37.1 µM
same,TGI,BT-549 breast,> 100 µM
same,GI50,HOP-62 NSCLC,41.2 µM
same,TGI,HOP-62 NSCLC,> 100 µM
same,GI50,SF-539 CNS,60.5 µM
same,TGI,SF-539 CNS,> 100 µM
same,GI50,SN12C renal,31.7 µM
same,TGI,SN12C renal,> 100 µM
same,GI50,SK-MEL-2 melanoma,> 100 µM
same,TGI,SK-MEL-2 melanoma,> 100 µM
same,GI50,NCI/ADR-RES ovarian,> 100 µM
same,TGI,NCI/ADR-RES ovarian,> 100 µM
same,GI50,SF-268 CNS,44.3 µM
same,TGI,SF-268 CNS,> 100 µM
same,GI50,HT29 colon,44.1 µM
same,TGI,HT29 colon,> 100 µM
same,GI50,HCT-15 colon,> 100 µM
same,TGI,HCT-15 colon,> 100 µM
same,GI50,K-562 leukemia,35.2 µM
same,TGI,K-562 leukemia,> 100 µM
same,GI50,PC-3 prostate,77.8 µM
same,TGI,PC-3 prostate,> 100 µM
same,GI50,COLO 205 colon,68 µM
same,TGI,COLO 205 colon,> 100 µM
same,GI50,SNB-19 CNS,24 µM
same,TGI,SNB-19 CNS,60.7 µM
same,GI50,OVCAR-5 ovarian,> 100 µM
same,TGI,OVCAR-5 ovarian,> 100 µM
same,GI50,MDA-MB-231 breast,40 µM
same,TGI,MDA-MB-231 breast,97.6 µM
same,GI50,786-0 renal,45.9 µM
same,TGI,786-0 renal,> 100 µM
same,GI50,LOX IMVI melanoma,35.3 µM
same,TGI,LOX IMVI melanoma,87.3 µM
same,GI50,SNB-75 CNS,23.7 µM
same,TGI,SNB-75 CNS,92 µM
same,GI50,SK-OV-3 ovarian,> 100 µM
same,TGI,SK-OV-3 ovarian,> 100 µM
same,GI50,HS 578T breast,16.2 µM
same,TGI,HS 578T breast,77.9 µM
same,GI50,OVCAR-3 ovarian,39.4 µM
same,TGI,OVCAR-3 ovarian,> 100 µM
same,GI50,MDA-MB-435,99.6 µM
same,TGI,MDA-MB-435,> 100 µM
same,GI50,NCI-H226 lung,34.8 µM
same,TGI,NCI-H226 lung,> 100 µM
